Reference: ChEMBL document CHEMBL3217617 (Medchemcomm, 2012)

How the values were obtained:
[1] = Cytotoxicity against human SKBR3 cells by Alamar Blue assay; format: functional, cell-based; settings: SK-BR-3
Histone deacetylase 1 [2] = biological target: T1, Histone deacetylase 1 (Homo sapiens, UniProt Q13547); test: Inhibition of human recombinant HDAC1 expressed in human HEK293 cells using Ac-NH-GGK(Ac)-AMC as substrate after 180 mins by fluorescence assay relative to control
[3] = Cytotoxicity against human CAL27 cells by Alamar Blue assay; format: functional, cell-based; settings: CAL-27
Histone deacetylase 3 [4] = biological target: T2, Histone deacetylase 3 (Homo sapiens, UniProt O15379); test: Inhibition of human recombinant HDAC3 expressed in Sf21 insect cells using Ac-NH-GGK(Ac)-AMC as substrate after 180 mins by fluorescence assay
T2 sequence (O15379 whole entry): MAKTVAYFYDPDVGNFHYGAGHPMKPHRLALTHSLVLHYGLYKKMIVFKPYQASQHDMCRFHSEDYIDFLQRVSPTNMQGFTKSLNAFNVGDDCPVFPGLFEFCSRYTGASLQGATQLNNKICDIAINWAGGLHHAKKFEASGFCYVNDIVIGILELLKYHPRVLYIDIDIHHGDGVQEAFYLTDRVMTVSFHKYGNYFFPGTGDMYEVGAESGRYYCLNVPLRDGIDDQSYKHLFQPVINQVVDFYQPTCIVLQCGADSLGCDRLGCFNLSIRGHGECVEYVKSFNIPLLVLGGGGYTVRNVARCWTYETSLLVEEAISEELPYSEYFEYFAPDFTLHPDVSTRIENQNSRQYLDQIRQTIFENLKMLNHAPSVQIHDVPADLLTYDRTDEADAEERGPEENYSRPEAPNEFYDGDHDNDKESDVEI

A549 = test: Cytotoxicity against human A549 cells by Alamar Blue assay; format: functional, cell-based
SK-OV-3 = test: Cytotoxicity against human SKOV3 cells by Alamar Blue assay; format: functional, cell-based
A-431 = test: Cytotoxicity against human A431 cells by Alamar Blue assay; format: functional, cell-based
Histone deacetylase 1 [5] = biological target: T1, Histone deacetylase 1; test: Inhibition of human recombinant HDAC1 expressed in human HEK293 cells using Ac-NH-GGK(Ac)-AMC as substrate after 180 mins by fluorescence assay
Histone deacetylase [6] = test: Inhibition of HDAC in human HeLa cells using Boc-K(Ac)-AMC as substrate preincubated for 4 hrs before substrate addition measured after 3 hrs by fluorescence assay; format: cell-based
[7] = biological target: T3, Protein deacetylase HDAC6 (Homo sapiens, UniProt Q9UBN7); test: Inhibition of human recombinant HDAC6 expressed in human HEK293 cells using Ac-NH-GGK(Ac)-AMC as substrate after 180 mins by fluorescence assay
T3 sequence (Q9UBN7 whole entry): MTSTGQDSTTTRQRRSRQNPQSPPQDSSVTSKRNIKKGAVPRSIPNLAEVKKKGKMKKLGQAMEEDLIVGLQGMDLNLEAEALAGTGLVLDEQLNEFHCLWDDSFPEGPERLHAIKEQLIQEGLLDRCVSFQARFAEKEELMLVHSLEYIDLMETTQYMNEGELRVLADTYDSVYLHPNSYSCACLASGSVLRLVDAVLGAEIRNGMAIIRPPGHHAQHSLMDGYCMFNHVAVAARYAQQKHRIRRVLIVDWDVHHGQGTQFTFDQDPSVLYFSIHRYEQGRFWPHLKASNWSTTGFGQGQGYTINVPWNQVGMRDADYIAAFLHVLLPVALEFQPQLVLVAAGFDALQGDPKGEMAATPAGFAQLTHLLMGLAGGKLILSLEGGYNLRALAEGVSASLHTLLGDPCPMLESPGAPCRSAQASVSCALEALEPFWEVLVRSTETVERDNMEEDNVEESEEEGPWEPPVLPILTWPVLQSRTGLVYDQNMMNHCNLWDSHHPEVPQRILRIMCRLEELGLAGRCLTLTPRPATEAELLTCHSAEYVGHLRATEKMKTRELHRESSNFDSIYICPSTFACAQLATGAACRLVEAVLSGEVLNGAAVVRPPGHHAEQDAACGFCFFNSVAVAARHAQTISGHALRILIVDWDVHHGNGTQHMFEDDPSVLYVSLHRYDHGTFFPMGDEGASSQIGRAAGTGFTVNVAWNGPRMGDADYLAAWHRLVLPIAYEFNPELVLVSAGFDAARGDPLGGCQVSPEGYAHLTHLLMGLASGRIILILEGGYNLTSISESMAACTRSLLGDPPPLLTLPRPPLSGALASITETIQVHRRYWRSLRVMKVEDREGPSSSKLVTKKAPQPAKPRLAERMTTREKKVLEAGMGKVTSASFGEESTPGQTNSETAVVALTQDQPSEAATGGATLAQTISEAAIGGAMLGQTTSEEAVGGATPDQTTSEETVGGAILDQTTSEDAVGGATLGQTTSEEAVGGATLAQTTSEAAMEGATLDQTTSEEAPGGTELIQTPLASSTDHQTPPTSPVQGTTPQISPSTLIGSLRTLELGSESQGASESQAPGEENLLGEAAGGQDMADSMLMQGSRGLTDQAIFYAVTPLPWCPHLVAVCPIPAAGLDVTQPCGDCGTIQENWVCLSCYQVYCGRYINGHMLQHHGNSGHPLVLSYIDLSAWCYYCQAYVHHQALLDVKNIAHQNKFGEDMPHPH

HeLa = test: Cytotoxicity against human HeLa cells by Alamar Blue assay; format: functional, cell-based
Histone deacetylase [8] = test: Inhibition of HDAC in human HeLa cell nuclear extracts using Ac-NH-GGK(Ac)-AMC as substrate after 180 mins by fluorescence assay; format: protein assay
Histone deacetylase 8 = biological target: T4, Histone deacetylase 8 (Homo sapiens, UniProt Q9BY41); test: Inhibition of human recombinant HDAC8 expressed in Sf21 insect cells using Ac-NH-GGK(Ac)-AMC as substrate after 180 mins by fluorescence assay
T4 sequence (Q9BY41 whole entry): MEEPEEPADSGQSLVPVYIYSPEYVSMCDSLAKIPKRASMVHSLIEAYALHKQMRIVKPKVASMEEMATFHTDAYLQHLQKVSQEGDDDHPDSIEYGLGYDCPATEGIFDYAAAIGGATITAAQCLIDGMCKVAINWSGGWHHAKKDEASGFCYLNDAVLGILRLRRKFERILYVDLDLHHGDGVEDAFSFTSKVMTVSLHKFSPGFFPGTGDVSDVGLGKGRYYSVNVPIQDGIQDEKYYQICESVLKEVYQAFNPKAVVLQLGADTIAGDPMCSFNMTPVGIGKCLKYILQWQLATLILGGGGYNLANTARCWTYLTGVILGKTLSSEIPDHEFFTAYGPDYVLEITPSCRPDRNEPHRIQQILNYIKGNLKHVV

Insulin receptor = Insulin receptor (Homo sapiens, UniProt P06213); test: Inhibition of recombinant InsR (unknown origin) using poly-Glu-Tyr peptide as substrate
Insulin receptor, sequence (P06213 28-758 limits assumed): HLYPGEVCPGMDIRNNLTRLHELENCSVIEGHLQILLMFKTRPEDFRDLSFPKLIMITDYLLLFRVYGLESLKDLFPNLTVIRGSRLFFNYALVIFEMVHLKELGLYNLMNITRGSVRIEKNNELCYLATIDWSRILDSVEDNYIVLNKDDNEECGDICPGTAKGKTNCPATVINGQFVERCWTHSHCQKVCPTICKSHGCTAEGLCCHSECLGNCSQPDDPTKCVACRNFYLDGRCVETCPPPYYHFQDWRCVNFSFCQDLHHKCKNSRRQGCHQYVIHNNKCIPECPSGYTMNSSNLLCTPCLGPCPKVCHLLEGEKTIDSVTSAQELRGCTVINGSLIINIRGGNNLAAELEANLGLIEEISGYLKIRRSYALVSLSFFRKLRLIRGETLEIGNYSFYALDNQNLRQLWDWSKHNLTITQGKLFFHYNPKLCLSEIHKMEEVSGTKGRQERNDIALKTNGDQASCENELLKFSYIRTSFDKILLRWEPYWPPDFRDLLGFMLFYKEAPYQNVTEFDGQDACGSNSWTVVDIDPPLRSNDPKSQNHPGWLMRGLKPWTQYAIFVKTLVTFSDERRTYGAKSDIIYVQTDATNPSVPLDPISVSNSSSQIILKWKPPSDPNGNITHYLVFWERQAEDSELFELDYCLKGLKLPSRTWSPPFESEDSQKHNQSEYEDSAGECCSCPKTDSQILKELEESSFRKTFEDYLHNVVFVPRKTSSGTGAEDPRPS
Insulin receptor, sequence (P06213 763-1382 limits assumed): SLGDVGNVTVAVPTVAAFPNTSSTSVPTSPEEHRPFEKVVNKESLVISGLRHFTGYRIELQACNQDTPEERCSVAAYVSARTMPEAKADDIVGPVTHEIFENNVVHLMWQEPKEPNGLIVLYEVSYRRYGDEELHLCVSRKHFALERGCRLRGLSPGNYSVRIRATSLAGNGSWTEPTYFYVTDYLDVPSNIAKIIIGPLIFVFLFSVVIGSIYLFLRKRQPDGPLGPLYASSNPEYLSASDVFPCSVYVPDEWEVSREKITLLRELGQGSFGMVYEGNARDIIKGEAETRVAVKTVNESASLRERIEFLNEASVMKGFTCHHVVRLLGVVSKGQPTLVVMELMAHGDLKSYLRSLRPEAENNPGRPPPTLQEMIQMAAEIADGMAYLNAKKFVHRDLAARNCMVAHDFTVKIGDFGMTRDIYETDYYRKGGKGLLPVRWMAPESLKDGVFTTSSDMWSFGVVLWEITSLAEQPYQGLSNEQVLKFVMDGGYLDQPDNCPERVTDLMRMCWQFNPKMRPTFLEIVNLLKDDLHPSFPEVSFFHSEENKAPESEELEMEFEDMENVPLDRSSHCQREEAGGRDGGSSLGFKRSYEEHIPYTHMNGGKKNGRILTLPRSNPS

[9] = biological target: T5, Histone deacetylase (Homo sapiens) (UniProt Q13547+O15379+Q9UBN7+Q92769+Q9UQL6+Q8WUI4+Q9BY41+Q96DB2+P56524+Q9UKV0+Q969S8); test: Inhibition of HDAC in human HeLa cell nuclear extracts using Ac-NH-GGK(Ac)-AMC as substrate after 180 mins by fluorescence assay relative to control; format: protein assay
[10] = biological target: Tyrosine-protein kinase ABL1 (Homo sapiens, UniProt P00519); test: Inhibition of recombinant Abl1 (unknown origin) using poly-Glu-Tyr peptide as substrate
Tyrosine-protein kinase ABL1, sequence (P00519 whole entry): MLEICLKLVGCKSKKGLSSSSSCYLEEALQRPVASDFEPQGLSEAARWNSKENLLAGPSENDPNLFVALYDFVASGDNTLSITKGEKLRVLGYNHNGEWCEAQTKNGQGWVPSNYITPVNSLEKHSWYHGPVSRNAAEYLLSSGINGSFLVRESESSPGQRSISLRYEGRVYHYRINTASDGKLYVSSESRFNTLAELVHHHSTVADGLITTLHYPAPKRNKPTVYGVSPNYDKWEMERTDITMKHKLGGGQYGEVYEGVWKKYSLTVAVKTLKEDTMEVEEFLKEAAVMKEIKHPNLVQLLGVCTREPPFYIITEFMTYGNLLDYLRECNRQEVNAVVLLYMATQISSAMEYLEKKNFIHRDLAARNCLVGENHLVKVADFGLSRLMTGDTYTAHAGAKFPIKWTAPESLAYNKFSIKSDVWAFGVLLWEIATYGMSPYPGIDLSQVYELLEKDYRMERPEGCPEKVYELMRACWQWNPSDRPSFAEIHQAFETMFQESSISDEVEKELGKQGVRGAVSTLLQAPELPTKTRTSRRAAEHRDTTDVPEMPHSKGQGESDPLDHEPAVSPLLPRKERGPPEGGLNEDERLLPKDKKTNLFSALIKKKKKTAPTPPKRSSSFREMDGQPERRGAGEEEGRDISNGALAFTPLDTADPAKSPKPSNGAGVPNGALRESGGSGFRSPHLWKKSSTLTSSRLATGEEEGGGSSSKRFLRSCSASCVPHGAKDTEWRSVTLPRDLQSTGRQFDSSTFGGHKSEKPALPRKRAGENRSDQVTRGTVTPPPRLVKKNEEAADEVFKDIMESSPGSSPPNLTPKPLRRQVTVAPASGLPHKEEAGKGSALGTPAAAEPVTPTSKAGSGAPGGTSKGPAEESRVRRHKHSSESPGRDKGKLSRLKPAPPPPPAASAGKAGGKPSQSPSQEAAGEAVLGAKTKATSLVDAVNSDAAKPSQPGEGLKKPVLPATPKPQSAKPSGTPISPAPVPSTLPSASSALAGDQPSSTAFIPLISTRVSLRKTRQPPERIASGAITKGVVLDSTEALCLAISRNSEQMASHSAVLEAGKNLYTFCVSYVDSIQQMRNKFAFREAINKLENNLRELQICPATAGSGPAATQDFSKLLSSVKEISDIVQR

[11] = biological target: Cyclin-dependent kinase 2 (Homo sapiens, UniProt P24941); test: Inhibition of recombinant CDK2 (unknown origin) using poly-Glu-Tyr peptide as substrate
[12] = biological target: Epidermal growth factor receptor (Homo sapiens, UniProt P00533); test: Inhibition of recombinant EGFR (unknown origin) using poly-Glu-Tyr peptide as substrate
Epidermal growth factor receptor, sequence (P00533 whole entry): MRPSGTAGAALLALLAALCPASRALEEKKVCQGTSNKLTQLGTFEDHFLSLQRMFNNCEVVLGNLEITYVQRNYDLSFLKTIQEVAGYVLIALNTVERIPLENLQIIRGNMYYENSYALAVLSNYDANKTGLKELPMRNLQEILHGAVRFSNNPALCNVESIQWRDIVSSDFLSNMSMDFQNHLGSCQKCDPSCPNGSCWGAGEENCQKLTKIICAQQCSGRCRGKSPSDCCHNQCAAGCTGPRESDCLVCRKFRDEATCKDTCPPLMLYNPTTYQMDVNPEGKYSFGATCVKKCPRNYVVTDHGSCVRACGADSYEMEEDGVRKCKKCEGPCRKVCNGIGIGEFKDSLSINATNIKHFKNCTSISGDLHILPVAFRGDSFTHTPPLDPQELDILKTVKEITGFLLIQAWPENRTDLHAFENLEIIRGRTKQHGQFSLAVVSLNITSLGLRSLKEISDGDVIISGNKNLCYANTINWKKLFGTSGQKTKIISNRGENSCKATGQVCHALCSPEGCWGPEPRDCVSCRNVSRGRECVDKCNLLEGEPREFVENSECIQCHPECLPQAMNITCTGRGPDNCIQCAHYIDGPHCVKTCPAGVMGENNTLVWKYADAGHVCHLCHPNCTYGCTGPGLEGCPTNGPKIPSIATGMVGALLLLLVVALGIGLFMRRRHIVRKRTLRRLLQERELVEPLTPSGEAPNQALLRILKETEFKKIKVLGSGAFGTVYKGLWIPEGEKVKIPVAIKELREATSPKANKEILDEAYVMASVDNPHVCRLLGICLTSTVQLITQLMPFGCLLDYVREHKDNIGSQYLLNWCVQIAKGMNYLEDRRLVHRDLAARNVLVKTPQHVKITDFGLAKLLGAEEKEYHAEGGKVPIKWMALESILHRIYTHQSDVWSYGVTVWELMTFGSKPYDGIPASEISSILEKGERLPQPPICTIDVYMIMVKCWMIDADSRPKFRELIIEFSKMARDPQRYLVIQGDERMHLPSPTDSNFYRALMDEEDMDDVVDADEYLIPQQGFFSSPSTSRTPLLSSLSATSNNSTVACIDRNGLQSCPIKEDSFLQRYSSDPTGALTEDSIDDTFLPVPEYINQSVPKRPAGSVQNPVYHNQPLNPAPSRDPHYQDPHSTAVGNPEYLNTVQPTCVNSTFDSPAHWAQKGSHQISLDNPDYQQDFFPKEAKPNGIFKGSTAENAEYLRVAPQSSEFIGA

[13] = Inhibition of recombinant PKA (unknown origin) using poly-Glu-Tyr peptide as substrate; parameters: species or system Homo sapiens
[14] = biological target: Serine/threonine-protein kinase PLK1 (Homo sapiens, UniProt P53350); test: Inhibition of recombinant Plk1 (unknown origin) using poly-Glu-Tyr peptide as substrate
[15] = biological target: Platelet-derived growth factor receptor beta (Homo sapiens, UniProt P09619); test: Inhibition of recombinant PDGFRbeta (unknown origin) using poly-Glu-Tyr peptide as substrate
[16] = biological target: Receptor tyrosine-protein kinase erbB-2 (Homo sapiens, UniProt P04626); test: Inhibition of recombinant HER2 (unknown origin) using poly-Glu-Tyr peptide as substrate
[17] = biological target: T5, Histone deacetylase (Homo sapiens); test: Inhibition of HDAC in human HeLa cells using Boc-K(Ac)-AMC as substrate preincubated for 4 hrs before substrate addition measured after 3 hrs by fluorescence assay relative to control; format: cell-based
Histone deacetylase 3 [18] = biological target: T2, Histone deacetylase 3; test: Inhibition of human recombinant HDAC3 expressed in Sf21 insect cells using Ac-NH-GGK(Ac)-AMC as substrate after 180 mins by fluorescence assay relative to control

T1 sequence (Q13547 whole entry): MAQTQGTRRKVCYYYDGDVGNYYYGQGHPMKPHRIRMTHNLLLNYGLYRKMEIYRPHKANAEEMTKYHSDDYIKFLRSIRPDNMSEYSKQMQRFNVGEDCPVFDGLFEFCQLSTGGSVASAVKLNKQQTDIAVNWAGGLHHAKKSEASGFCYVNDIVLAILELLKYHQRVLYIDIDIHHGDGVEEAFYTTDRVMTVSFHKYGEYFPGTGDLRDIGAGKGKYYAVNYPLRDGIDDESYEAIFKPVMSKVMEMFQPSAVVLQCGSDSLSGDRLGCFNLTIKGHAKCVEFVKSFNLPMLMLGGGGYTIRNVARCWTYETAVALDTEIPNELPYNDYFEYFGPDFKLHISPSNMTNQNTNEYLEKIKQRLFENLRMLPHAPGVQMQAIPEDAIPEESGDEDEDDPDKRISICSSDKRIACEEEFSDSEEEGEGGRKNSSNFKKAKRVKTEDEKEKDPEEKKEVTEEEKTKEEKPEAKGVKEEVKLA

SMILES | IC50 (Histone deacetylase 3 [4]) [µM] | IC50 (Histone deacetylase 1 [5]) [µM] | IC50 (Histone deacetylase [6]) [µM] | IC50 [7] [µM] | IC50 (Histone deacetylase [8]) [µM] | IC50 (Histone deacetylase 8) [µM] | IC50 (Insulin receptor) [µM] | Imax [9] [%] | IC50 [10] [µM] | IC50 [11] [µM] | IC50 [12] [µM] | IC50 [13] [µM] | IC50 [14] [µM] | IC50 [15] [µM] | IC50 [1] [µM] | IC50 [3] [µM] | IC50 (A549) [µM] | IC50 (SK-OV-3) [µM] | IC50 (A-431) [µM] | IC50 (HeLa) [µM] | further results
C#Cc1cccc(Nc2ncnc3ccc(NC(=O)c4ccc(C(=O)Nc5ccccc5N)nc4)cc23)c1 | 0.44 | 0.31 | > 15.8 | > 32 | > 32 | > 32 |  |  |  |  |  |  |  |  | 11 | 8 | 39 | 7.7 | > 16 | 21.5 | Imax (Histone deacetylase 1 [2]): 70%
C#Cc1cccc(Nc2ncnc3cc(NC(=O)c4ccc(C(=O)Nc5ccccc5N)cc4)ccc23)c1 | 0.5 | 0.8 | 0.78 | > 32 | 0.2 | > 32 |  | 30 |  |  |  |  |  |  | 39 | 0.46 | 1.4 | > 50 | 1.6 | 1.7 | Imax [17]: 30%
C#Cc1cccc(Nc2ncnc3cc(NC(=O)c4ccc(C(=O)Nc5ccccc5N)s4)ccc23)c1 | 0.77 | 2.2 | > 5.01 | > 32 | 0.38 | > 32 |  | 30 |  |  |  |  |  |  | 33 | 1.2 | 0.82 | 30 | 0.96 | 1.8 | Imax (Histone deacetylase 1 [2]): 75%; Imax (Histone deacetylase 3 [18]): 70%
C#Cc1cccc(Nc2ncnc3ccc(NC(=O)c4ccc(C(=O)Nc5ccccc5N)cc4)cc23)c1 | 0.61 | 10.5 | > 15.8 | > 32 | > 32 | > 32 |  |  |  |  |  |  |  |  | > 50 | 0.33 | > 50 | > 50 | > 16 | > 50 | 
C#Cc1cccc(Nc2ncnc3ccc(S(=O)(=O)n4ccc(/C=C/C(=O)Nc5ccccc5N)c4)cc23)c1 | 0.84 | 0.091 | 4.24 | > 32 | 7.2 | > 32 | 41 | 50 | 15 | 17 | 1.3 | 24 | 27 | 16 | 27 | 2.5 | 3.7 | 5.7 | 3.7 | 3.45 | Imax (Histone deacetylase 3 [18]): 75%; IC50 [16]: 2.9 µM
C#Cc1cccc(Nc2ncnc3ccc(NC(=O)c4ccc(C(=O)Nc5ccccc5N)s4)cc23)c1 | 0.92 | 8.6 | > 15.8 | > 32 | > 32 | > 32 |  |  |  |  |  |  |  |  | > 50 | 0.41 | > 50 | > 50 | > 16 | > 50 | 
Nc1ccccc1NC(=O)c1ccc(COc2ccc3ncnc(Nc4cccc(Br)c4)c3c2)cc1 | 0.51 | 0.074 | 2.46 | > 32 | 0.25 | > 32 | 150 |  | 11 | 22 | 0.033 | > 100 | > 100 | 28 | 5.1 | 0.62 | 1.3 | 6.3 | 1.7 | 1.45 | Imax (Histone deacetylase 3 [18]): 75%; IC50 [16]: 0.039 µM

The next lines start with results.

IC50 (Histone deacetylase 3 [4]) [µM] | IC50 (Histone deacetylase 1 [5]) [µM] | IC50 (Histone deacetylase [6]) [µM] | IC50 [7] [µM] | IC50 (Histone deacetylase [8]) [µM] | IC50 (Histone deacetylase 8) [µM] | IC50 (Insulin receptor) [µM] | Imax [9] [%] | IC50 [10] [µM] | IC50 [11] [µM] | IC50 [12] [µM] | IC50 [13] [µM] | IC50 [14] [µM] | IC50 [15] [µM] | SMILES | IC50 [1] [µM] | IC50 [3] [µM] | IC50 (A549) [µM] | IC50 (SK-OV-3) [µM] | IC50 (A-431) [µM] | IC50 (HeLa) [µM] | further results
0.55 | 0.041 | 1.85 | > 32 | 0.2 | > 32 | 36 | 50 | 7 | 13 | 0.078 | > 100 | > 100 | 7.2 | C#Cc1cccc(Nc2ncnc3ccc(OCc4ccc(C(=O)Nc5ccccc5N)cc4)cc23)c1 | 3.4 | 0.61 | 0.9 | 5.1 | 1.6 | 1.35 | IC50 [16]: 0.066 µM
0.32 | 5.6 | > 5.01 | > 32 | 0.51 | > 32 |  | 30 |  |  |  |  |  |  | C#Cc1cccc(Nc2ncnc3cc(NC(=O)c4ccc(C(=O)Nc5ccccc5N)nc4)ccc23)c1 | > 50 | 0.45 | 2.1 | > 50 | 0.79 | 1.5 | 
0.015 | 0.0065 | 0.034 | 0.0073 | 0.0064 | 0.59 | 65 |  | 27 | > 100 | 1.2 | > 100 | > 100 | 70 | C#Cc1cccc(Nc2ncnc3ccc(S(=O)(=O)n4ccc(/C=C/C(=O)NO)c4)cc23)c1 | 0.19 | 0.16 | 0.24 | 0.56 | 0.26 | 0.5 | IC50 [16]: 3.4 µM
> 32 | > 32 | > 15.8 | > 32 | > 32 | > 32 |  |  |  |  |  | > 100 |  |  | C#Cc1cccc(Nc2ncnc3cc(OCCOC)c(OCCOC)cc23)c1 [ERLOTINIB] | 15 | 0.074 | > 50 | 31 | 2.5 | 8.3 | 
